From PMC8501045, “Addressing MRSA infection and antibacterial resistance with peptoid polymers” (Nature Communications, 2021) come the findings set out here.

For test [1], the system named is E. faecalis 0609. Description: MIC assay, clinical isolate. It is filed as cell-based. Conditions: Enterococcus faecalis, 0609. As to the method: (§1) MRSA (S. aureus Mu50, S. aureus Newman, S. aureus USA400, S. aureus USA300 LAC, S. aureus USA300) were obtained from Shanghai Institute of Materia Medica, Chinese Academy of Sciences. All clinically isolated Gram-positive bacteria used in this study were isolated from patients with various infections, different ages and sexes in the Shanghai Ruijin Rehabilitation Hospital. All strains were cultured in Luria-Bertani (LB) medium at 37 °C before use.
(§2) Bacteria were cultured in LB medium at 37 °C for 10 h, and then the bacterial suspension was diluted in Mueller–Hinton (MH) medium to a cell density of 2 × 10^5 colony forming units (CFU)/mL as the working suspension. The poly(Naeg)20 was serially diluted by MH medium in a 96-well plate, and an equal volume of bacterial suspension was added into each well. The final concentration of the poly(Naeg)20 was ranging from 200 to 1.56 μg/mL, and the plates were incubated at 37 °C for 9 h. Wells with inoculum and no polymer were used as the positive control; wells with only MH medium were used as the blank. The optical density (OD) in each well was measured on a Molecular Devices SpectraMax M2 precision microplate reader. The percentage of bacteria growth was calculated from1 %cellgrowth=A600polymer-A600blank/A600control-A600blank×100
(§3) The test was independently repeated at least three times.

Test [2] concerns E. faecalis 2305. Description: MIC assay, clinical isolate. Conditions: Enterococcus faecalis, 2305. Type of test: cell-based. As to the method: as §1, §2, §3
Test [3] deals with E. faecium 0502. The experiment in a line: MIC assay, clinical isolate. Type of test: cell-based. The note with it: Enterococcus faecium, 0502. As to the method:
as §1, §2, §3

Test [4] has as its system E. faecium 0609. Description: MIC assay, clinical isolate. It is filed as cell-based. The note with it: Enterococcus faecium, 0609. The procedure: as §1, §2, §3
Test [5] relates to E. faecium 0610. Description: MIC assay, clinical isolate. It is filed as cell-based. Conditions: Enterococcus faecium, 0610. The procedure: as §1, §2, §3
Test [6] concerns E. faecium 1205. The experiment in a line: MIC assay, clinical isolate. The note with it: Enterococcus faecium, 1205. It is filed as cell-based. As to the method: as §1, §2, §3
Test [7] has as its system E. faecium 2504. Description: MIC assay, clinical isolate. Type of test: cell-based. Conditions: Enterococcus faecium, 2504. As to the method:
as §1, §2, §3

For test [8], the system named is S. agalactiae 0613. The experiment in a line: MIC assay, clinical isolate. It is filed as cell-based. The note with it: Streptococcus agalactiae, 0613. The procedure:
as §1, §2, §3

For test [9], the system named is S. aureus 2202. Description: MIC assay, clinical isolate. Type of test: cell-based. The note with it: Staphylococcus aureus, 2202. The procedure:
as §1, §2, §3

The test system of test [10] is S. aureus 2802. The experiment in a line: MIC assay, clinical isolate. Type of test: cell-based. The note with it: Staphylococcus aureus, 2802. As to the method: as §1, §2, §3
The test system of test [11] is S. aureus 2902. The experiment in a line: MIC assay, clinical isolate. It is filed as cell-based. The note with it: Staphylococcus aureus, 2902. As to the method: as §1, §2, §3
The test system of test [12] is S. aureus 2904. Description: MIC assay, clinical isolate. Type of test: cell-based. The note with it: Staphylococcus aureus, 2904. The procedure:
as §1, §2, §3

The subject of test [13] is S. epidermidis 0501. The experiment in a line: MIC assay, clinical isolate. It is filed as cell-based. The note with it: Staphylococcus epidermidis, 0501. The procedure:
as §1, §2, §3

Test [14] has as its system S. epidermidis 9397. Description: MIC assay, clinical isolate. It is filed as cell-based. The note with it: Staphylococcus epidermidis, 9397. The procedure:
as §1, §2, §3

Test [15] concerns S. haemolyticus 0202. The experiment in a line: MIC assay, clinical isolate. Type of test: cell-based. The note with it: Staphylococcus haemolyticus, 0202. As to the method: as §1, §2, §3
The subject of test [16] is S. haemolyticus 1107. The experiment in a line: MIC assay, clinical isolate. It is filed as cell-based. The note with it: Staphylococcus haemolyticus, 1107. The procedure:
as §1, §2, §3

The test system of test [17] is S. haemolyticus 1303. The experiment in a line: MIC assay, clinical isolate. Type of test: cell-based. Conditions: Staphylococcus haemolyticus, 1303. The procedure: as §1, §2, §3
Test [18] concerns L. monocytogenes 1001. Description: MIC assay, clinical isolate. It is filed as cell-based, Listeria monocytogene. The note with it: Listeria monocytogenes, 1001. The procedure: as §1, §2, §3
The subject of test [19] is S. aureus USA300 LAC. Description: Mouse full-thickness wound infection model, MRSA. It is filed as in vivo. The note with it: 1.56 mg/mL topical. As to the method:
This infection model was conducted according to the previously reported method with slight modification. Female balb/c mice (20–21 g) were used in the full-thickness wound model caused by MRSA. Prior to surgery, mice were anesthetized with an intraperitoneal injection of sodium pentobarbital at a dose of 75 mg/kg. The dorsal hair was shaved, and the skin was rinsed with 75% alcohol three times. The 6-mm-diameter full-thickness wounds were punctured on either side of the back using a biopsy punch. An aliquot of 10 µL S. aureus USA300 LAC suspension (1.25 × 10^5 CFU/mL) was added to wound site. The wound site was covered by Tegaderm dressing (3 M, St Paul, MN) to prevent contamination. […] The treatments were applied every 4 h for a total of three times. After the last treatment for 4 h, mice were euthanized with an overdose of sodium pentobarbital. The wound sites were excised, weighed, and homogenized in PBS containing 0.1% TX-100. Then the homogenate was serially diluted for plating on LB agar. After incubation at 37 °C for 14 h, the number of colonies on the plate was counted to calculate the bacteria burden of wounds.

The subject of test [20] is S. aureus USA300 LAC biofilm. The experiment in a line: Mouse keratitis model, MRSA biofilm on contact lens. Type of test: in vivo. The note with it: 1.56 mg/mL topical.
Method: The contact lenses were cut into discs with a diameter of 3.5 mm and placed in a 96-well plate. The discs were soaked with 150 μL of MH medium overnight. Then the discs were transferred to a new 96-well plate and 150 μL of S. aureus USA300 LAC suspension (10^5 CFU/mL in MH medium) was added into corresponding wells. The plate was incubated at 37 °C with shaking at 100 rpm. After 2 h incubation, the suspension was aspirated and the lenses were washed with PBS to remove any nonadherent cells, followed by the addition of 150 μL of fresh MH medium. The plate containing the contact lenses with adhered cells was incubated at 37 °C with shaking at 100 rpm for 18 h to allow biofilm formation.
Male balb/c mice (22–24 g) were intraperitoneally injected with cyclophosphamide (150 mg/kg at 4 days and 100 mg/kg at 1 day before inducing keratitis) for immunosuppression. […] In addition, 0.5% tetracaine hydrochloride eye drops were used as topical anesthesia and then a 2 mm-diameter filter paper disc containing 2 μL of 99% 1-heptanol was placed on the center of the cornea for 15 min. […] All mice were killed and the eyeballs of each mouse were collected immediately 30 min after the last treatment, followed by the quantitative analysis of bacterial burden.
The subject of test [21] is S. epidermidis 9397. Description: Mouse peritonitis model, survival test, S. epidermidis. It is filed as in vivo. Conditions: i.p. 20 mg/kg, 7 days. As to the method:
This infection model was conducted according to the previously reported method with slight modification. Female ICR mice (21–24 g) were used for MRSA-infected peritonitis model. Mice were infected by intraperitoneal administration of 0.2 mL of S. aureus USA300 LAC in saline (7.5 × 10^8 CFU/mL) supplemented with 5% mucin. […] Once the infected mice died, peritoneal lavage was performed by injecting 3.0 mL of saline into the peritoneal cavity and massaging the abdomen. Subsequently, the abdomen was opened and peritoneal fluid was recovered from the abdominal cavity for analysis. Blood samples were collected through cardiac puncture for analysis of CFU/mL. Then, different organs including the heart, liver, spleen, lung, and kidney were removed and homogenized in 0.1% TX-100 solution. The homogenate was serially diluted for plating on LB agar. After incubation at 37 °C for 14 h, the number of colonies on the plate was counted to calculate the bacteria burden. Surviving mice were euthanized at 48 h after infection. The blood, peritoneal fluid, and organs were collected for the determination of bacterial colonies. […] For the pretreatment group, mice were sacrificed and tissues were harvested to determine the CFU at 1 h post infection. […]

Values after ≈ are worked out from the molar mass of the structure shown.

For `CN[C@H](CC(C)C)C(=O)N[C@H]1C(=O)N[C@@H](CC(N)=O)C(=O)N[C@H]2C(=O)N[C@H]3C(=O)N[C@H](C(=O)N[C@H](C(=O)O)c4cc(O)cc(O)c4-c4cc3ccc4O)[C@H](O)c3ccc(c(Cl)c3)Oc3cc2cc(c3O[C@@H]2O[C@H](CO)[C@@H](O)[C@H](O)[C@H]2O[C@H]2C[C@](C)(N)[C@H](O)[C@H](C)O2)Oc2ccc(cc2Cl)[C@H]1O` [Vancomycin], the MIC (usually the smallest concentration in the dilution series that meets the test's criterion for growth inhibition) in test [1] is 0.39 µg/mL (≈ 0.269 µM); in test [2] it was 0.78 µg/mL (≈ 0.538 µM); in test [3] it was greater than 200 µg/mL; in [4], 50 µg/mL (≈ 34.5 µM); in test [5], 0.78 µg/mL (≈ 0.538 µM); in [6], 0.39 µg/mL (≈ 0.269 µM). The minimum inhibitory concentration (MIC) in test [7] worked out at 0.78 µg/mL (≈ 0.538 µM); in [8] it was 0.78 µg/mL (≈ 0.538 µM); in [9], 0.78 µg/mL (≈ 0.538 µM); in test [10] it was 0.39 µg/mL (≈ 0.269 µM); in test [11], 0.39 µg/mL (≈ 0.269 µM); in [12] it was 0.39 µg/mL (≈ 0.269 µM). Further, the MIC is 0.78 µg/mL (≈ 0.538 µM) in test [13]; 0.78 µg/mL (≈ 0.538 µM) in test [14]; 1.56 µg/mL (≈ 1.08 µM) in test [15]; 0.78 µg/mL (≈ 0.538 µM) in [16]; 0.78 µg/mL (≈ 0.538 µM) in test [17]; 0.39 µg/mL (≈ 0.269 µM) in test [18]. For the same compound, the “reduction in the bacterial burden on the wound compared with the saline group” value in test [19] is ~ 1.2 log. In [20], the “reduction of the bacterial load of each eye of the mouse” value is “ineffective”. Moreover, the mice survived in [21] is on record as 4/6.
